Like-named read-outs stand apart in the source and are kept apart here.
Legend:
MLE12 cells = assay: Cell viability assay in MLE12 cells (resazurin); assay type: cell-based, mouse; conditions: TNF-α 20 ng/ml, resazurin added after 24 hours culture
Method: (§1) Stock solutions (10 mM in DMSO) of compounds were dispensed in V-bottom 384-well plates and the following dilutions were prepared: 10 mM and 0.05 mM. The dilutions were transferred to the source plate. Duplicate 6 points dose-response curves of compounds were nano-dispensed in cell plates (CCL2 assay) and in parallel, 11 points DR curves in duplicates were nano-dispensed for the viability assay. The plates were heat sealed and kept at RT until use.
(§2) MLE12 cells in flasks were washed once with PBS, detached with Trypsin/EDTA, resuspended in fresh medium and counted. Cells were diluted to 3×10^5 cells/ml and seeded with Multidrop Combi in cell plates pre-dispensed with compounds, 25 μl/well (7500 cells/well). The plates were placed, one by one, in a CO2-incubator at 37° C. for 1 hour after which 25 μl/well of TNF-α (final concentration 20 ng/ml) were added. The plates were transferred back to the CO2-incubator placed in a plastic box with wet tissue in the bottom, to avoid evaporation, for 30 hours.
After 24 hours culture, resazurin reagent (stock 1 mg/ml in PBS) diluted 1:17 in PBS was added with Multidrop Combi, 10 μl/well, and plates were incubated for 6 hours. Plates were read in Sense plate reader with resorufin protocol (ex544 nm/em595 nm). The results were imported to an excel template where the EC50 values were calculated using XLfit.

CCL2 = assay: Mouse CCL2 assay in MLE12 cells; assay type: cell-based
Text: Cisbio mouse CCL2 assay is intended for the quantitative measurement of CCL2 in supernatant using HTRF® technology. The assay is compatible with mouse samples, and is highly specific for CCL2. CCL2 is detected in a sandwich assay format using 2 different specific antibodies, one labeled with Cryptate (donor) and the second with d2 (acceptor). The detection principle is based on HTRF® technology. When the labelled antibodies bind to the same antigen, the excitation of the donor with a light source (laser or flash lamp) triggers a Fluorescence Resonance Energy Transfer (FRET) towards the acceptor, which in turn fluoresces at a specific wavelength (665 nm). The two antibodies bind to the CCL2 present in the sample, thereby generating FRET. Signal intensity is proportional to the number of antigen-antibody complexes formed and therefore to the CCL2 concentration. • Materials: • Cells: MLE12 (Mouse Lung Epithelial cells, SV40 transformed) • Medium: DMEM/F12 (Gibco #11330057), FBS 5% (Gibco #10500064), Pen/Strep 50 U/50 μg/ml (Gibco #15070063) • Cell plates: 384-well, black/clear, TC-treated (Corning #3764) • Source plate: Labcyte LDV 384 (Labcyte #LP-0200) • Compound dilution plate: V-bottom 384-well PP plate (Greiner #781280) • Compounds: 10 mM stocks in DMSO • HTRF plates: 384-well, white, half area, non-binding (Costar #3824) • Mouse CCL2 kit: Cisbio 62MCCL2PEH • Other reagents: Trypsin/EDTA 10× (Gibco #15400054), PBS (Gibco #14190169), Resazurin (Sigma-Aldrich #199303), 1 mg/ml in PBS, TNF-α 200 μg/ml in PBS (Peprotech #300-01A) • Instruments: • Echo liquid handler (Labcyte) • Multidrop Combi (Thermo Scientific) • Sense plate reader (Hidex) Compound Handling:
as §1, §2
After 30 hours incubation, the plates were spun down 5 minutes at 400 g, and 16 μl/well of the supernatants were transferred to the assay plate. A mCCL2 standard curve was prepared according to the kit protocol and 16 μl/well of the standards were also added to the assay plate.
The anti-CCL2 antibody mix was prepared according to the kit protocol, and 4 μl/well were added to the assay plate. The plate was sealed and incubated over night at RT. After incubation the plate was read in Sense plate reader with Time-resolved FRET protocol (Ex330 nm/Em 620 and 665 nm). After data reduction, the delta ratios were imported to an excel template where the IC50 values were calculated.

OGG1 = OGG1 (Homo sapiens (Human), UniProt O15527); assay: In vitro OGG1 activity assay; assay type: biochemical; conditions: 800 pM OGG1 enzyme, 2 nM human APEX1, 10 nM 8-oxoA:C substrate
Summary of the method: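 Read-out is fluorescein fluorescence, with compounds in DMSO added first, then enzyme and substrate. OGG1 excises its substrate base from a quenched fluorophore-labelled duplex, and surplus APEX1 cuts the resulting apurinic site. The duplex then melts and fluorescence rises in proportion to glycosylase activity.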

[1] = Mus musculus, MLE12, 30 h, MLE12 cells, TNF-α 20 ng/ml, supernatant after 30 hours, HTRF, read-out: CCL2 (EC50)

OGG1, sequence (O15527 whole entry): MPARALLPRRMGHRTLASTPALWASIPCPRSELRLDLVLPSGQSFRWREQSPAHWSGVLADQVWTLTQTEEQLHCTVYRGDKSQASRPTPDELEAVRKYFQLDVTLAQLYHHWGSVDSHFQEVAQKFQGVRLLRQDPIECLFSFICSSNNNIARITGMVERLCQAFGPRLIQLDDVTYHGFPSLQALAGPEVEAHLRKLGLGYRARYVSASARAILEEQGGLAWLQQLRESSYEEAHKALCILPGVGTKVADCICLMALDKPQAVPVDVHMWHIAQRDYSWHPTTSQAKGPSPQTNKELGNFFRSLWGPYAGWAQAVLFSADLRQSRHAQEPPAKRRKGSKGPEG

Row | Structure (SMILES) | EC50 (CCL2; [1]) | IC50 (OGG1) | EC50 (CCL2; MLE12 cells, TNF-α 20 ng/ml, supernatant after 30 hours, HTRF, read-out: CCL2 (EC50)) | IC50 (MLE12 cells; Mus musculus, MLE12, 24 h) | IC50 (MLE12 cells; Mus musculus) | EC50 (CCL2; Mus musculus, MLE12, 30 h, read-out: CCL2 (EC50, nM)) | IC50 (MLE12 cells)
1 | O=C(Nc1ccc(Br)c(Cl)c1)N1CCC(n2c(=O)[nH]c3c(Br)cccc32)CC1 [Example 49, 4-(4-Bromo-2-oxo-2,3-dihydro-1H-1,3-benzodiazol-1-yl)-N-(4-bromo-3-chlorophenyl)piperidine-1-carboxamide] | 15200 nM | 0.379 µM |  | 5.4 µM |  |  | 
2 | O=C(Nc1ccc(Cl)c(Cl)c1)N1C2CCC1CC(n1c(=O)[nH]c3c(Br)cccc31)C2 (stereo not drawn) [Example 72, 3-(4-Bromo-2-oxo-2,3-dihydro-1H-1,3-benzodiazol-1-yl)-N-(3,4-dichlorophenyl)-(endo)-8-azabicyclo[3.2.1]octane-8-carboxamide] |  | 0.067 µM |  |  | 6.31 µM | 21500 nM | 
3 | COc1cc(NC(=O)N2CCC(n3c(=O)[nH]c4c(Br)cccc43)CC2)ccc1C [Example 75, 4-(4-Bromo-2-oxo-2,3-dihydro-1H-1,3-benzodiazol-1-yl)-N-(3-methoxy-4-methylphenyl)piperidine-1-carboxamide] | 34100 nM | 0.223 µM | 39400 nM | 10.4 µM |  |  | 12.8 µM
4 | COc1cc(NC(=O)N2CCC(n3c(=O)[nH]c4c(Br)cccc43)CC2)ccc1Cl [Example 77, 4-(4-Bromo-2-oxo-2,3-dihydro-1H-1,3-benzodiazol-1-yl)-N-(4-chloro-3-methoxyphenyl)piperidine-1-carboxamide] | 21200 nM | 0.358 µM |  | 7.4 µM |  |  | 
5 | COc1cc(NC(=O)N2CCC(n3c(=O)[nH]c4c(-c5ccc(CO)nc5)cccc43)CC2)ccc1C [Example 82, 4-{4-[6-(Hydroxymethyl)pyridin-3-yl]-2-oxo-2,3-dihydro-1H-1,3-benzodiazol-1-yl}-N-(3-methoxy-4-methylphenyl)piperidine-1-carboxamide] | 30800 nM | 1 µM |  | 17.7 µM |  |  | 
6 | O=c1[nH]c2c(Br)cccc2n1[C@H]1CC[C@@H](C(=O)Nc2ccc(Cl)c(F)c2)CC1 [Example 121, (Cis)-4-(4-bromo-2-oxo-2,3-dihydro-1H-1,3-benzodiazol-1-yl)-N-(4-chloro-3-fluorophenyl)cyclohexane-1-carboxamide] | 13000 nM |  |  | 4.86 µM |  |  | 
7 | Cc1ccc(NC(=O)[C@H]2CC[C@@H](n3c(=O)[nH]c4c(Br)cccc43)CC2)cc1C [Example 124, (Cis)-4-(4-bromo-2-oxo-2,3-dihydro-1H-1,3-benzodiazol-1-yl)-N-(3,4-dimethylphenyl)cyclohexane-1-carboxamide] | 31200 nM |  |  | 11.5 µM |  |  | 
8 | COc1cc(NC(=O)[C@H]2CC[C@@H](n3c(=O)[nH]c4c(Br)cccc43)CC2)ccc1F [Example 130, (Cis)-4-(4-bromo-2-oxo-2,3-dihydro-1H-1,3-benzodiazol-1-yl)-N-(4-fluoro-3-methoxyphenyl)cyclohexane-1-carboxamide] | 22600 nM |  |  | 6.36 µM |  |  | 
9 | COc1cc(NC(=O)[C@H]2CC[C@@H](n3c(=O)[nH]c4c(N)cccc43)CC2)ccc1C [Example 249, Cis-4-(4-amino-2-oxo-2,3-dihydro-1H-1,3-benzodiazol-1-yl)-N-(3-methoxy-4-methylphenyl)cyclohexane-1-carboxamide] | 34700 nM |  |  | 15.7 µM |  |  | 
10 | COc1cc(NC(=O)[C@H]2CC[C@@H](n3c(=O)[nH]c4c(OCCC(C)C)cccc43)CC2)ccc1C [Example 325, Cis-N-(3-methoxy-4-methylphenyl)-4-[4-(3-methylbutoxy)-2-oxo-2,3-dihydro-1H-1,3-benzodiazol-1-yl]cyclohexane-1-carboxamide] |  | 0.314 µM |  |  |  |  | 
11 | COc1cc(NC(=O)[C@H]2CC[C@@H](n3c(=O)[nH]c4c(OCCOC5CCCCC5)cccc43)CC2)ccc1C [Example 326, Cis-4-(4-(2-(cyclohexyloxy)ethoxy)-2-oxo-2,3-dihydro-1H-benzo[d]imidazol-1-yl)-N-(3-methoxy-4-methylphenyl)cyclohexanecarboxamide] |  | 0.118 µM |  |  |  |  | 

The next lines start with results.

Row | EC50 (CCL2; [1]) | IC50 (OGG1) | EC50 (CCL2; MLE12 cells, TNF-α 20 ng/ml, supernatant after 30 hours, HTRF, read-out: CCL2 (EC50)) | Structure (SMILES) | IC50 (MLE12 cells; Mus musculus, MLE12, 24 h) | IC50 (MLE12 cells; Mus musculus) | EC50 (CCL2; Mus musculus, MLE12, 30 h, read-out: CCL2 (EC50, nM)) | IC50 (MLE12 cells)
12 | 15400 nM |  |  | O=C(Nc1ccc(I)cc1)N1CCC(n2c(=O)[nH]c3cc(Cl)ccc32)CC1 [Example 2, 4-(5-Chloro-2-oxo-2,3-dihydro-1H-1,3-benzodiazol-1-yl)-N-(4-iodophenyl) piperidine-1-carboxamide] | 10.3 µM |  |  | 
13 | 33000 nM |  |  | Nc1cccc2c1[nH]c(=O)n2C1CCN(C(=O)Nc2ccc(I)cc2)CC1 [Example 20, 4-(4-Amino-2-oxo-2,3-dihydro-1H-1,3-benzodiazol-1-yl)-N-(4-iodophenyl)piperidine-1-carboxamide] | 11.5 µM |  |  | 
14 | 52700 nM | 0.848 µM |  | O=C(Nc1ccc(I)cc1)N1CCC(n2c(=O)[nH]c3c(-n4cccn4)cccc32)CC1 [Example 22, N-(4-iodophenyl)-4-[2-oxo-4-(1H-pyrazol-1-yl)-2,3-dihydro-1H-1,3-benzodiazol-1-yl]piperidine-1-carboxamide] | 13.8 µM |  |  | 
15 | 29000 nM | 0.728 µM |  | O=C(Nc1ccc(I)cc1)N1CCC(n2c(=O)[nH]c3c(-n4cncn4)cccc32)CC1 [Example 23, N-(4-iodophenyl)-4-[2-oxo-4-(1H-1,2,4-triazol-1-yl)-2,3-dihydro-1H-1,3-benzodiazol-1-yl]piperidine-1-carboxamide] | 19.9 µM |  |  | 
16 | 15000 nM |  |  | O=C(Nc1ccc(I)cc1)N1CCC(n2c(=O)[nH]c3c(-c4cccnc4)cccc32)CC1 [Example 26, N-(4-iodophenyl)-4-[2-oxo-4-(pyridin-3-yl)-2,3-dihydro-1H-1,3-benzodiazol-1-yl]piperidine-1-carboxamide] | 7.7 µM |  |  | 
17 | 16300 nM | 0.488 µM |  | O=C(Nc1ccc(Cl)c(Cl)c1)N1CCC(n2c(=O)[nH]c3c(Br)cccc32)CC1 [Example 27, 4-(4-Bromo-2-oxo-2,3-dihydro-1H-1,3-benzodiazol-1-yl)-N-(3,4-dichlorophenyl)piperidine-1-carboxamide] | 7.74 µM |  |  | 
18 | 17400 nM | 1.59 µM |  | O=C(Nc1ccc(Cl)c(Cl)c1)N1CCC(n2c(=O)[nH]c3c(-c4cncnc4)cccc32)CC1 [Example 37, N-(3,4-dichlorophenyl)-4-[2-oxo-4-(pyrimidin-5-yl)-2,3-dihydro-1H-1,3-benzodiazol-1-yl]piperidine-1-carboxamide] | 7.03 µM |  |  | 
19 | 15100 nM | 0.788 µM |  | Nc1ccc(-c2cccc3c2[nH]c(=O)n3C2CCN(C(=O)Nc3ccc(Cl)c(Cl)c3)CC2)cn1 [Example 39, 4-[4-(6-Aminopyridin-3-yl)-2-oxo-2,3-dihydro-1H-1,3-benzodiazol-1-yl]-N-(3,4-dichlorophenyl)piperidine-1-carboxamide] | 6.5 µM |  |  | 
20 | 50700 nM |  |  | O=C(Nc1ccc(I)cc1)N1CCC(n2c(=O)[nH]c3c(-n4cc(Br)cn4)cccc32)CC1 [Example 41, 4-[4-(4-Bromo-1H-pyrazol-1-yl)-2-oxo-2,3-dihydro-1H-1,3-benzodiazol-1-yl]-N-(4-iodophenyl)piperidine-1-carboxamide] | 16.6 µM |  |  | 

— patent US11970474B2, “Substituted benzodiazoles and use thereof in therapy” (THOMAS HELLEDAYS STIFTELSE FÖR MEDICINSK FORSKNING, priority 2018, dated 2024)
